In PMC7038240 (Antimicrobial Agents and Chemotherapy, 2020):
Like-named read-outs stand apart in the source and are kept apart here.

Experiments:
Assay type in all cases: cell-based
P. aeruginosa = test: microbe, parasite or virus in culture; conditions: Pseudomonas aeruginosa, read-out: MIC
E. coli = test: microbe, parasite or virus in culture; conditions: Escherichia coli, read-out: MIC
S. typhi = test: microbe, parasite or virus in culture; conditions: Salmonella enterica, strain 26A, AmpC/TEM-1
K. oxytoca = test: microbe, parasite or virus in culture; conditions: Klebsiella oxytoca, read-out: MIC
C. freundii = test: microbe, parasite or virus in culture; conditions: Citrobacter freundii
K. aerogenes = test: microbe, parasite or virus in culture; conditions: Klebsiella aerogenes
K. pneumoniae = test: microbe, parasite or virus in culture; conditions: Klebsiella pneumoniae, read-out: MIC
S. paratyphi = test: microbe, parasite or virus in culture; conditions: Salmonella enterica, strain 527, AmpC/TEM-1
S. marcescens = test: microbe, parasite or virus in culture; conditions: Serratia marcescens
M. morgannii = test: organism not typed; conditions: strain 769909; OXA-48
Source text: The antibacterial activity of cefepime-taniborbactam was compared to that of ceftazidime-avibactam, ceftolozane-tazobactam, and cefepime-tazobactam against a diverse panel of Enterobacterales and P. aeruginosa clinical isolates with defined β-lactamase subtypes (see Table S1 in the supplemental material). IMP-producing strains were excluded, as none of the BLI-protected cephalosporins inhibited IMP sufficiently to provide a clinically relevant rescue of the partner β-lactam, a characteristic also shared by approved BLI-protected carbapenems (meropenem-vaborbactam and imipenem-relebactam). […] The antibacterial activity of the cephalosporins alone was included to ascertain the level of potentiation by the partnered BLI. BLIs were tested at a fixed concentration of 4 μg/ml in all combinations except cefepime-tazobactam, where tazobactam was fixed at a concentration of 8 μg/ml ([38]). The collection comprised 143 clinical isolates collected from 2005 and 2018.
The in vitro antibacterial activity of the β-lactams alone or in combination with the BLIs was determined in cation-adjusted Mueller-Hinton broth (CAMHB) microdilution assays according to CLSI recommendations ([51]). […]. The inocula for the broth microdilution assays were prepared by the broth culture method ([51]). […]

Measured: MIC

Cn1c(N)c(NC(=O)NCCN)c[n+]1CC1=C(C(=O)O)N2C(=O)[C@@H](NC(=O)/C(=N\OC(C)(C)C(=O)[O-])c3nsc(N)n3)[C@H]2SC1 [TOL]
128 µg/mL: P. aeruginosa; strain 13.1716, PDC-74 | P. aeruginosa; strain 13.1737, PDC-80 | P. aeruginosa; strain 13.1755, PDC-86 | P. aeruginosa; strain PS-32, VIM-2 | E. coli; strain 664522, OXA-48 | E. coli; strain 873435, CTX-M-15 | E. coli; strain ESBL 5, CTX-M-15/TEM-1 | K. pneumoniae; strain 515746, OXA-48 | K. pneumoniae; strain 664438, OXA-48 | K. pneumoniae; strain 664439, OXA-48 | K. pneumoniae; strain 769972, OXA-48 | K. pneumoniae; strain 848828, KPC | K. pneumoniae; strain 849170, KPC | K. pneumoniae; strain 873460, SHV-30/CTX-M-15 | K. pneumoniae; strain 882752, SHV-11/TEM-1/KPC-3 | K. pneumoniae; strain CDC-0003, KPC | K. pneumoniae; strain CDC-0117, KPC-3 | K. pneumoniae; strain CDC-0125, KPC-3 | K. pneumoniae; strain DOV, OXA-48 | K. pneumoniae; strain KIRK, OXA-162
8 µg/mL: P. aeruginosa; strain 11.813, PDC-91 | E. coli; strain 469, AmpC/SHV-12/TEM-1 | E. coli; strain 890500, TEM-1/CTX-M-14 | E. coli; strain SI-PO26, AmpC/CMY-2/TEM-1 | E. coli; strain SI-V502, TEM-29/CTX-M-15 | K. oxytoca; strain 134943, CMY-2/TEM-1 | C. freundii; strain 134390, AmpC/TEM-1 | K. pneumoniae; strain 212027, AmpC/FOX-5/TEM-1 | M. morgannii
≥ 256 µg/mL: P. aeruginosa; strain 247.3D, VIM-2 | P. aeruginosa; strain 1113755, GES-5 | P. aeruginosa; strain 1138223, GES-19 | P. aeruginosa; strain 1138337, GES-19 | P. aeruginosa; strain 1275655, GES-20 | P. aeruginosa; strain 1300089, GES-19 | P. aeruginosa; strain PAA1-9G1, GES-5 | P. aeruginosa; strain PAA1-9G2, GES-5 | P. aeruginosa; strain PS-12, VIM-2 | P. aeruginosa; strain Ps296, VIM-2 | E. coli; strain 1275635, VIM-23 | E. coli; strain 1459453, NDM-7 | E. coli; strain CDC-0069, NDM | E. coli; strain CDC-0149, NDM | K. oxytoca; strain 847537, KPC | K. pneumoniae; strain 6299, OXA-163 | K. pneumoniae; strain 196477, AmpC | K. pneumoniae; strain 752334, OXA-48 | K. pneumoniae; strain 845661, KPC | K. pneumoniae; strain 848562, KPC | K. pneumoniae; strain 848600, KPC | K. pneumoniae; strain 856819, SHV-11/VIM-1 | K. pneumoniae; strain 864085, KPC | K. pneumoniae; strain 871489, KPC | K. pneumoniae; strain 874328, SHV-11/CTX-M-15/NDM-1 | K. pneumoniae; strain 882956, SHV-31/DHA-1/VIM-1 | K. pneumoniae; strain 890066, SHV-33/TEM-33/CTX-M-15/IMP-1 | K. pneumoniae; strain 892694, SHV-12/TEM-1/CTX-M-15/OXA-48/ACT | K. pneumoniae; strain 919877, SHV-OSBL/VIM-1 | K. pneumoniae; strain 1104864, SHV-OSBL(b)/VIM-1 | K. pneumoniae; strain 1104866, SHV-OSBL(b)/VIM-1 | K. pneumoniae; strain 1280442, SHV-OSBL(b)/VIM-1 | K. pneumoniae; strain CDC-0049, NDM | K. pneumoniae; strain CDC-0139, NDM-1 | K. pneumoniae; strain CDC-0145, NDM | K. pneumoniae; strain CDC-0148, NDM | K. pneumoniae; strain CDC-0152, NDM | K. pneumoniae; strain KP 3, SHV-1/TEM-1 | K. pneumoniae; strain SI-C05, OXA-48
16 µg/mL: P. aeruginosa; strain 10.257, PDC-50 | P. aeruginosa; strain 13.1775, PDC-87 | P. aeruginosa; strain 384743, PDC/TEM-1 | P. aeruginosa; strain 1013996, KPC-2 | P. aeruginosa; strain Paeβ-18, 600-fold ↑ PDC-3/<0.01% OprD/3.9x and 5.6x ↑ABM and XYM | E. coli; strain 1924, TEM-12 | E. coli; strain 875627, CTX-M-27 | E. coli; strain EC1552 2A, AmpC/CMY-2/TEM-1, CTX-M-15 | S. typhi | C. freundii; strain 241181, AmpC/TEM-163 | K. pneumoniae; strain SI-F100, SHV-5/TEM-1/CMY-2
4 µg/mL: P. aeruginosa; strain 3615, PDC/TEM-1 | P. aeruginosa; strain Paeβ-15, 310-fold ↑ PDC-2/10% OprD/4.4x↑XYM | K. aerogenes; strain 73546, AmpC | K. aerogenes; strain 111707, AmpC/TEM-1
32 µg/mL: P. aeruginosa; strain 11.698, PDC-87 | P. aeruginosa; strain 13.1760, PDC-77 | P. aeruginosa; strain 1071703, GES-6 | P. aeruginosa; strain 1313666, KPC-2 | P. aeruginosa; strain CDC-0090, KPC | E. coli; strain 849121, KPC | E. coli; strain SI-LP377, CTX-M-2 | K. pneumoniae; strain ESBL8 #1, TEM-1/SHV-12 | K. pneumoniae; strain ESBL 10, SHV-12/TEM-1 | K. pneumoniae; strain KPN 508, SHV-7/TEM-1 | S. paratyphi
2 µg/mL: P. aeruginosa; strain PA2, W.T. | P. aeruginosa; strain Paeβ-04, 100-fold ↑ PDC-2/30% OprD/5.6x ↑ABM | P. aeruginosa; strain Paeβ-10, 67-fold ↑ PDC-2/0.1% OprD/5.7x↑ABM | P. aeruginosa; strain Paeβ-17, 62-fold ↑PDC-3/30% OprD/10.2x and 9.9x ↑XYM and CDJ | P. aeruginosa; strain Paeβ-21, 200-fold ↑ PDC-4/10% OprD/13.5x ↑XYM | E. coli; strain VER, OXA-48
1 µg/mL: P. aeruginosa; ATCC27853, strain ATCC 27853, W.T. | P. aeruginosa; strain 1129, PDC | P. aeruginosa; strain 8273, PDC/TEM-1 | P. aeruginosa; strain 164951, W.T. | P. aeruginosa; strain 377860, W.T.
64 µg/mL: P. aeruginosa; strain 11.516, PDC-79 | P. aeruginosa; strain 13.1717, PDC-74 | P. aeruginosa; strain 5671, VIM-1 | P. aeruginosa; strain 1258509, GES-6 | E. coli; strain 664507, OXA-48 | E. coli; strain 664516, OXA-48 | E. coli; strain 664520, OXA-48 | E. coli; strain 664523, OXA-48 | E. coli; strain 878358, TEM-1/CTX-M | E. coli; strain CDC-0001, KPC | E. coli; strain SI-M004, SHV-2/GES-12 | K. aerogenes; strain 110099, AmpC/SHV-12 | K. pneumoniae; strain 137052, SHV-11/KPC-3/TEM-1 | K. pneumoniae; strain 178279, SHV-12/TEM-1/AmpC | K. pneumoniae; strain 722870, OXA-48 | K. pneumoniae; strain 787422, OXA-48 | K. pneumoniae; strain 847204, KPC | K. pneumoniae; strain 884679, KPC | K. pneumoniae; strain SI-KP NO30, TEM-26b/SHV-60/SHV-26 | S. marcescens; strain 134434, AmpC/SHV-12/TEM-1 | S. marcescens; strain 192476, AmpC/TEM-1/SHV-5 | S. marcescens; strain 192478, AmpC/SHV-12/TEM-1 | S. marcescens; strain 218073, AmpC/SHV-7/TEM-1
